Test results: US20260132129A1 (Genesis Therapeutics, Inc., priority 2022, published 2026)

Target: T1, PI3Kα H1047R (T47D cells) (Homo sapiens, UniProt P42336, H1047R)
T1 construct: endogenous in cells; host or cells: T47D cells
Test: PI3Kα cellular assay: pAKT HTRF in T47D cells after EGF stimulation
Type: cell-based
Conditions: for IC50: T47D cells (PI3Kα H1047R), pAKT S473 HTRF
Summary of the method: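 T47D cells (PIK3CA H1047R) serum-starved 16 h, then treated 1 h at 37 °C with compound (10,000 nM top, 3-fold steps to 0.5 nM). After 10 min stimulation with 20 ng/mL EGF, cells were lysed and pAKT measured by HTRF.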

[1] = 1 hr compound, 20 ng/ml EGF 10 min
[2] = selectivity T47D (H1047R) over SKBR3 (WT), pAKT HTRF
[3] = selectivity of T47D (H1047R) over SKBR3 (WT) pAKT IC50

T1 sequence (P42336 whole entry H1047R): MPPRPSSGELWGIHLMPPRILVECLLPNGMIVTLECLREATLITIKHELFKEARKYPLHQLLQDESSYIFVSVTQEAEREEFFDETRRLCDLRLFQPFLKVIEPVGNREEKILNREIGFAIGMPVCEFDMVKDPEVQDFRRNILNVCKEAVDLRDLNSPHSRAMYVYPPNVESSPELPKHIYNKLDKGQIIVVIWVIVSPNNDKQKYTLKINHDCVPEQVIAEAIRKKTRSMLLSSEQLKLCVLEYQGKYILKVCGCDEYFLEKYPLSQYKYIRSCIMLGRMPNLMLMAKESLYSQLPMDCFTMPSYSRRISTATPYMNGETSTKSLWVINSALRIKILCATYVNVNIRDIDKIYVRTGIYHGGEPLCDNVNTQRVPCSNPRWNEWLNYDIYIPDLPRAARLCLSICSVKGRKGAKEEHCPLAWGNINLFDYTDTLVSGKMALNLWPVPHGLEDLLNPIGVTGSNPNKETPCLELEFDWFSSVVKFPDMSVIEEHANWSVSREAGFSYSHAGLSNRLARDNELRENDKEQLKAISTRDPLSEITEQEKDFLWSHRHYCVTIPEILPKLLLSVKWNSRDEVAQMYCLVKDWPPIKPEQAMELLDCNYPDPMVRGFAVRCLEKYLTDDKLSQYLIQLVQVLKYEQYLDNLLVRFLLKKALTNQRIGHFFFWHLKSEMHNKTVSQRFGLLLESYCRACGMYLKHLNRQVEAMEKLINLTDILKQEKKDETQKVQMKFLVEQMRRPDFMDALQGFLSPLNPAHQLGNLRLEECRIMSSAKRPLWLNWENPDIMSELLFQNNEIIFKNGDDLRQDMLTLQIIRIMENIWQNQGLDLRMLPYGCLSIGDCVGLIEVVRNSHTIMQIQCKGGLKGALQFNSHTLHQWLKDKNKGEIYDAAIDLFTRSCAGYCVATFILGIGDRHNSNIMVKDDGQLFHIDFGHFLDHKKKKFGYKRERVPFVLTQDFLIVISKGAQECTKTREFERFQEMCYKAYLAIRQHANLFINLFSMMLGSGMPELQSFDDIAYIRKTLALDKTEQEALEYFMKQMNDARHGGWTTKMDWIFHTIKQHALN
T1 sequence (P27986 whole entry partner): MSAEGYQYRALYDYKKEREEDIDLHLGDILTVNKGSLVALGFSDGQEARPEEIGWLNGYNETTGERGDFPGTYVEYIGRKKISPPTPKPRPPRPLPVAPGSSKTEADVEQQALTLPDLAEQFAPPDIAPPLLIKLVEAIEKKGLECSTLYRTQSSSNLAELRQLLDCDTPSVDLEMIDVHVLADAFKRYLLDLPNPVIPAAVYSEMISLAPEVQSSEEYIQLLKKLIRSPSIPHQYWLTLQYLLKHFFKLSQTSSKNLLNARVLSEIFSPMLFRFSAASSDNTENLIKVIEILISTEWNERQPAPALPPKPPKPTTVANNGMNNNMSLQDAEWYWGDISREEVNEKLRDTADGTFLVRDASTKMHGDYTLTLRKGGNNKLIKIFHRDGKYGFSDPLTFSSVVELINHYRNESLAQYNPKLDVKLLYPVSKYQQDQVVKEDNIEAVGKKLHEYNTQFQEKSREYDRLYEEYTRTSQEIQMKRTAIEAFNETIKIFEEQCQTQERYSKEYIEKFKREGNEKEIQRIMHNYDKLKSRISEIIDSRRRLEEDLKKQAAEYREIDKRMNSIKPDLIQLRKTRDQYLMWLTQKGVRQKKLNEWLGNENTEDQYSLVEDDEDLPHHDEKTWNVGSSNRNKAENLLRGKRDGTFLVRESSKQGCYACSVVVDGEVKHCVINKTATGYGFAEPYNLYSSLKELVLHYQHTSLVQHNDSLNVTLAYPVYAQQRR

| SMILES | IC50 [1] | T47D pAKT S473 HTRF IC50 (H1047R): T47D (H1047R) selectivity over SKBR3 (WT) [2] | T47D pAKT S473 HTRF IC50 (H1047R): T47D (H1047R) selectivity over SKBR3 (WT) [3] | IC50 (EGF stimulation) |
| --- | --- | --- | --- | --- |
| Cc1cc([C@@H](C)Nc2ccccc2C(=O)O)c2nc(C3CCN(C(=O)C4(N)CC4)CC3)cc(=O)n2c1 [Compound 525] | > 2000 nM | C (C denotes ≤5-fold) | – | – |
| Cc1cc([C@H](C)Nc2ccccc2C(=O)O)c2nc(C3CCN(C(=O)C4(N)CC4)CC3)cc(=O)n2c1 [Compound 526] | > 2000 nM | C (C denotes ≤5-fold) | – | – |
| Cc1cc(C(C)Nc2ccccc2C(=O)O)c2nc(N3CCN(C(=O)CN)CC3)cc(=O)n2c1 (stereo not drawn) [Compound 527] | > 2000 nM | C (C denotes ≤5-fold) | – | – |
| Cc1cc([C@H](C)Nc2ccccc2C(=O)O)c2nc(N3CCN(C(=O)CN)CC3)cc(=O)n2c1 [Compound 528] | > 2000 nM | C (C denotes ≤5-fold) | – | – |
| Cc1cc(C(C)Nc2ccccc2C(=O)O)c2nc(N3CCN(C(=O)CCN)CC3)cc(=O)n2c1 (stereo not drawn) [Compound 529] | > 2000 nM | C (C denotes ≤5-fold) | – | – |
| Cc1cc(C(C)Nc2ccccc2C(=O)O)c2nc(N3CCN(CCC(N)=O)CC3)cc(=O)n2c1 (stereo not drawn) [Compound 530] | > 2000 nM | C (C denotes ≤5-fold) | – | – |
| Cc1cc([C@@H](C)Nc2ccccc2C(=O)O)c2nc([C@H]3CCOC3)cc(=O)n2c1 [Compound 537] | 500 to 2000 nM | B (B denotes 20-fold≥value>5-fold) | – | – |
| Cc1cc([C@@H](C)Nc2ccccc2C(=O)O)c2nc([C@@H]3CCOC3)cc(=O)n2c1 [Compound 538] | > 2000 nM | C (C denotes ≤5-fold) | – | – |
| Cc1cc([C@H](C)Nc2ccccc2C(=O)O)c2nc([C@H]3CCOC3)cc(=O)n2c1 [Compound 539] | 500 to 2000 nM | B (B denotes 20-fold≥value>5-fold) | – | – |
| Cc1cc([C@@H](C)Nc2ccccc2C(=O)O)c2nc(-c3ccc4[nH]c(=O)oc4c3)cc(=O)n2c1 [Compound 541] | 100 to 500 nM | A (A denotes >20-fold) | – | – |
| Cc1cc([C@H](C)Nc2ccccc2C(=O)O)c2nc(-c3ccc4[nH]c(=O)oc4c3)cc(=O)n2c1 [Compound 542] | > 2000 nM | C (C denotes ≤5-fold) | – | – |
| Cc1cc(C(C)Nc2ccccc2C(=O)O)c2nc(C3CCC(NS(C)(=O)=O)CC3)c(C)c(=O)n2c1 (stereo not drawn) [Compound 543] | > 2000 nM | C (C denotes ≤5-fold) | – | – |
| Cc1cc(C(C)Nc2ccccc2C(=O)O)c2nc(C3CCC(NS(C)(=O)=O)CC3)c(C)c(=O)n2c1 (stereo not drawn) [Compound 544] | > 2000 nM | C (C denotes ≤5-fold) | – | – |
| Cc1cc([C@@H](C)Nc2ccccc2C(=O)O)c2nc(Nc3ccc4[nH]c(=O)oc4c3)cc(=O)n2c1 [Compound 546] | > 2000 nM | C (C denotes ≤5-fold) | – | – |
| Cc1cc([C@H](C)Nc2ccccc2C(=O)O)c2nc(Nc3ccc4[nH]c(=O)oc4c3)cc(=O)n2c1 [Compound 547] | > 2000 nM | C (C denotes ≤5-fold) | – | – |
| Cc1cc(C(C)Nc2ccccc2C(=O)O)c2nc(Nc3ccc4[nH]c(=O)oc4c3)cc(=O)n2c1 (stereo not drawn) [Compound 548] | > 2000 nM | C (C denotes ≤5-fold) | – | – |
| Cc1cc(C(C)Nc2ccccc2C(=O)O)c2nc(N3CCN(CCC(N)=O)CC3)cc(=O)n2c1 (stereo not drawn) [Compound 550] | > 2000 nM | C (C denotes ≤5-fold) | – | – |
| Cc1cc(C(C)Nc2ccccc2C(=O)O)c2nc(N3CCN(CCC(N)=O)CC3)cc(=O)n2c1 (stereo not drawn) [Compound 551] | > 2000 nM | C (C denotes ≤5-fold) | – | – |
| C=C(C)C1CCCC(c2cc(=O)n3cc(C)cc([C@@H](C)Nc4ccccc4C(=O)O)c3n2)CC1 (stereo partly drawn) [Compound 552] | – | C (C denotes ≤5-fold) | – | – |
| Cc1cc(C(C)Nc2ccccc2C(=O)O)c2nc(N3CCN(C(C)(C)C(N)=O)CC3)cc(=O)n2c1 (stereo not drawn) [Compound 554] | > 2000 nM | C (C denotes ≤5-fold) | – | – |
| Cc1cc([C@@H](C)Oc2ccccc2C(N)=O)c2nc(N3CCOCC3)cc(=O)n2c1 [Compound 562] | > 2000 nM | C (C denotes ≤5-fold) | – | – |
| Cc1cc([C@@H](C)Nc2cccc3[nH]c(=O)oc23)c2nc(N3CCOCC3)cc(=O)n2c1 [Compound 565] | > 2000 nM | C (C denotes ≤5-fold) | – | – |
| Cc1cc([C@H](C)Nc2cccc3[nH]c(=O)oc23)c2nc(N3CCOCC3)cc(=O)n2c1 [Compound 566] | > 2000 nM | C (C denotes ≤5-fold) | – | – |
| Cc1cc(C(C)Nc2ccccc2S(N)(=O)=O)c2nc(-c3cc(C)c4oc(=O)[nH]c4c3)cc(=O)n2c1 (stereo not drawn) [Compound 570] | 100 to 500 nM | A (A denotes >20-fold) | – | – |
| Cc1cc(C(C)Nc2ccccc2S(N)(=O)=O)c2nc(-c3cc(C)c4oc(=O)[nH]c4c3)cc(=O)n2c1 (stereo not drawn) [Compound 571] | > 2000 nM | C (C denotes ≤5-fold) | – | – |
| Cc1cc([C@H](C)Nc2ccccc2C(=O)O)c2nc(Nc3ccc4[nH]c(=O)[nH]c4c3)cc(=O)n2c1 [Compound 574] | > 2000 nM | C (C denotes ≤5-fold) | – | – |
| Cc1cc([C@@H](C)Nc2ccccc2C(=O)O)c2nc(-c3ccc4c(c3)NC(=O)C4)cc(=O)n2c1 [Compound 575] | 100 to 500 nM | A (A denotes >20-fold) | – | – |
| Cc1cc([C@H](C)Nc2ccccc2C(=O)O)c2nc(-c3ccc4c(c3)NC(=O)C4)cc(=O)n2c1 [Compound 576] | > 2000 nM | C (C denotes ≤5-fold) | – | – |
| CNC1=NC2C=C(c3cc(=O)n4cc(C)cc(C(C)Nc5ccccc5C(=O)O)c4n3)C=CC2=C1 (stereo not drawn) [Compound 577] | 100 to 500 nM | A (A denotes >20-fold) | – | – |
| CC(=O)N[C@H]1CCCC(c2cc(=O)n3cc(C)cc(C(C)Nc4ccccc4C(=O)O)c3n2)C1 (stereo partly drawn) [Compound 580] | – | C (C denotes ≤5-fold) | – | – |

Other lines, results leading:

| IC50 [1] | T47D pAKT S473 HTRF IC50 (H1047R): T47D (H1047R) selectivity over SKBR3 (WT) [2] | T47D pAKT S473 HTRF IC50 (H1047R): T47D (H1047R) selectivity over SKBR3 (WT) [3] | IC50 (EGF stimulation) | SMILES |
| --- | --- | --- | --- | --- |
| – | C (C denotes ≤5-fold) | – | – | Cc1cc(C(C)Nc2ccccc2C(=O)O)c2nc(N3CCN(C(C)(C)C(N)=O)CC3)cc(=O)n2c1 (stereo not drawn) [Compound 581] |
| > 2000 nM | C (C denotes ≤5-fold) | – | – | Cc1cc(C(C)Nc2ccccc2S(N)(=O)=O)c2nc(-c3ccc(F)cc3)cc(=O)n2c1 (stereo not drawn) [Compound 585] |
| > 2000 nM | C (C denotes ≤5-fold) | – | – | Cc1cc(C(C)Nc2ccccc2S(N)(=O)=O)c2nc(-c3ccc(F)cc3)cc(=O)n2c1 (stereo not drawn) [Compound 586] |
| > 2000 nM | C (C denotes ≤5-fold) | – | – | Cc1cc([C@H](C)Nc2ccccc2S(N)(=O)=O)c2nc(-c3ccc(F)cc3)cc(=O)n2c1 [Compound 587] |
| > 2000 nM | C (C denotes ≤5-fold) | – | – | Cc1cc([C@H](C)Nc2cccc3c2CCC(=O)N3)c2nc(N3CCOCC3)cc(=O)n2c1 [Compound 604] |
| < 100 nM | A (A denotes >20-fold) | – | – | Cc1cc([C@@H](C)Nc2ccccc2S(N)(=O)=O)c2nc(N3Cc4ccccc4C3)cc(=O)n2c1 [Compound 605, (R)-2-((1-(2-(isoindolin-2-yl)-7-methyl-4-oxo-4H-pyrido[1,2-a]pyrimidin-9-yl)ethyl)amino)benzenesulfonamide] |
| 100 to 500 nM | A (A denotes >20-fold) | – | – | Cc1cc(C(C)Nc2ccccc2C(=O)O)c2nc(C3CCC(C)(C)CC3)cc(=O)n2c1 (stereo not drawn) [Compound 622] |
| < 100 nM | A (A denotes >20-fold) | – | – | Cc1cc([C@@H](C)Nc2ccccc2C(=O)O)c2nc(C3CCC(C)(C)CC3)cc(=O)n2c1 [Compound 623, (R)-2-((1-(2-(4,4-dimethylcyclohexyl)-7-methyl-4-oxo-4H-pyrido[1,2-a]pyrimidin-9-yl)ethyl)amino)benzoic acid] |
| > 2000 nM | C (C denotes ≤5-fold) | – | – | Cc1cc([C@H](C)Nc2ccccc2C(=O)O)c2nc(C3CCC(C)(C)CC3)cc(=O)n2c1 [Compound 624] |
| > 2000 nM | C (C denotes ≤5-fold) | – | – | Cc1cc([C@@H](C)Nc2ccccc2C(=O)O)c2nc(-c3ccccc3)cc(=O)n2c1 [Compound 628] |
| < 100 nM | A (A denotes >20-fold) | – | – | Cc1cc([C@H](C)Nc2ccccc2C(=O)O)c2nc(-c3ccccc3)cc(=O)n2c1 [Compound 629] |
| – | – | C (C denotes ≤5-fold) | – | Cc1cc(C(C)Nc2ccccc2)c2nc(N3Cc4ccccc4C3)cc(=O)n2c1 (stereo not drawn) [Compound 647] |
| – | – | C (C denotes ≤5-fold) | > 2000 nM | Cc1cc([C@@H](C)N[C@H](C(=O)O)c2ccccc2)c2nc(N3CCOCC3)cc(=O)n2c1 [Compound 648] |
| – | – | C (C denotes ≤5-fold) | > 2000 nM | Cc1cc([C@@H](C)N[C@@H](C(=O)O)c2ccccc2)c2nc(N3CCOCC3)cc(=O)n2c1 [Compound 649] |
